In article PMC9919615, “Generation of Aurachin Derivatives by Whole-Cell Biotransformation and Evaluation of Their Antiprotozoal Properties” (Molecules, 2023) one finds IC50 data, which are given here for 14 compounds.

Like-named read-outs stand apart in the source and are kept apart here.

The test system of one experiment is T. cruzi Tulahuen C4. The experiment is described as follows: Antitrypanosomal assay T. cruzi (beta-galactosidase reporter strain on rat skeletal myoblasts). Type of experiment: cell-based, Trypanosoma cruzi. As to conditions: intracellular amastigotes, 4 days on rat skeletal myoblasts. Here is the method: (§1) Serial dilution assays with 11 dilution steps in 96-well plates were used in order to determine the IC50 values of the generated aurachin D analogs against P. falciparum NF54 (erythrocytic stages), T. brucei rhodesiense STIB 900 (bloodstream forms), T. cruzi Tulahuen C4 (intracellular amastigotes) and L. donovani MHOM-ET-67/L82 (axenic amastigotes). Potential cytotoxic effects were evaluated with L6 myoblast cells (Table 2).
Activity against Trypanosoma cruzi was evaluated according to a procedure described by Buckner and coworkers. The strain Tulahuen C4 of T. cruzi, which had been transfected with the β-galactosidase lacZ gene, was cultivated for 4 days on rat skeletal myoblasts (5% CO2, 37 °C) in the presence of drug. For measurement of the IC50, the substrate chlorophenol red-β-D-galactopyranoside was added. The color reaction that developed during the following 2–4 h was quantified photometrically employing an ELISA reader. Benznidazole was included in each test series as positive control.

The test system of experiment [1] is L. donovani MHOM-ET-67/L82. The experiment is described as follows: Antileishmanial assay (axenic amastigotes, resazurin viability). The class given is cell-based, Leishmania donovani. As to conditions: 3-day exposure, pH 5.4. Here is the method:
Serial dilution assays with 11 dilution steps in 96-well plates were used in order to determine the IC50 values of the generated aurachin D analogs against P. falciparum NF54 (erythrocytic stages), T. brucei rhodesiense STIB 900 (bloodstream forms), T. cruzi Tulahuen C4 (intracellular amastigotes) and L. donovani MHOM-ET-67/L82 (axenic amastigotes). Potential cytotoxic effects were evaluated with L6 myoblast cells (Table 2). Evaluation of antileishmanial activity was carried out with axenically grown amastigotes of Leishmania donovani MHOM-ET-67/L82, as previously described. For this, the amastigotes were cultured at 37 °C and pH 5.4 in SM medium supplemented with 10% heat-inactivated fetal bovine serum under an atmosphere of 5% CO2 in air. Following a 3-day exposure to test compounds, the viability of amastigote parasites was quantified using the dye resazurin by monitoring the reductive environment of living cells. Fluorescence development was expressed as percentage of the control, and IC50 values were calculated. Miltefosine was used as positive control.

The test system of experiment [2] is T. brucei rhodesiense STIB 900. The experiment is described as follows: Antitrypanosomal assay T. brucei rhodesiense (resazurin viability). The class given is cell-based, Trypanosoma brucei rhodesiense. To be noted: read-out: IC50 T. brucei rhodesiense STIB 900. Here is the method:
as §1
Activity against Trypanosoma brucei rhodesiense (strain STIB 900) was evaluated according to a previously established protocol. Parasites were grown axenically in culture medium supplemented with horse serum. Following a 3-day exposure to test compounds, the viability of tryptomastigote parasites was quantified using the dye resazurin by monitoring the reductive environment of living cells. Fluorescence development was expressed as percentage of the control, and IC50 values were calculated. Melarsoprol was included as positive control.

The next experiment deals with Rat Myoblast L6 Cells. Description: Cytotoxicity assay with L6 cells (resazurin viability). The class given is cell-based. Here is the method:
as §1
Cytotoxicity was tested with L6 cells (ATCC CRL-1458), a […] cell line derived from rat skeletal myoblasts, as previously described. For this, L6 cells were grown in culture medium supplemented with heat-inactivated fetal bovine serum under an atmosphere of 5% CO2 in air. Following a 3-day exposure to test compounds, the viability of L6 cells was quantified using the dye resazurin by monitoring the reductive environment of living cells. Fluorescence development was expressed as percentage of the control, and IC50 values were calculated. Podophyllotoxin was used as reference.

The subject of a further experiment is P. falciparum NF54. The experiment is described as follows: Antiplasmodial assay (3H-hypoxanthine incorporation). Type of experiment: cell-based, Plasmodium falciparum. To be noted: erythrocytic stages, 48 h drug exposure + 24 h with 3H-hypoxanthine. Here is the method: as §1
Antiplasmodial activity was determined against the NF54 strain of Plasmodium falciparum using a modified ^3H-hypoxanthine incorporation assay. Briefly, infected erythrocytes were exposed to serial drug dilutions in microtiter plates for 48 h at 37 °C in a gas mixture with reduced oxygen and elevated carbon dioxide concentrations. ^3H hypoxanthine was added to each well, and after further incubation for 24 h, the wells were harvested on glass fiber filters and counted in a liquid scintillation counter. From the sigmoidal inhibition curve, the IC50 value was calculated. Chloroquine was used as positive control in each test series.

The mark [3] stands for this setting: Trypanosoma cruzi, TULAHUEN, Myoblast, 96 h.
Setting [4] is: Trypanosoma brucei, 72 h, bloodstream forms, 3-day exposure.
Where [5] appears, read: Rattus norvegicus, L6, 72 h, cytotoxicity, 3-day exposure, read-out: IC50 Rat Myoblast L6 Cells.
Setting [6] is: Plasmodium falciparum, NF54, 72 h.
The mark [7] stands for this setting: bloodstream forms, 3-day exposure.
Where [8] appears, read: cytotoxicity, 3-day exposure, read-out: IC50 Rat Myoblast L6 Cells.

For `O=C(Cn1ccnc1[N+](=O)[O-])NCc1ccccc1` [Benznidazole, reference compound], in the experiment on T. cruzi Tulahuen C4 (setting [3]), the IC50 turned out to be 2.5 µM.

`CC(C)=CCC/C(C)=C/CC/C(C)=C/Cc1c(C)[nH]c2ccccc2c1=O` [Compound 1, aurachin D]: the IC50 in experiment [1] (Leishmania donovani, 72 h) stood at 0.044 µM; in experiment [2] (setting [4]), 4.5 µM; with T. cruzi Tulahuen C4 (setting [3]), 1.3 µM; in the experiment with Rat Myoblast L6 Cells (setting [5]), 131 µM; in the experiment on Rat Myoblast L6 Cells (Rattus norvegicus, L6, cytotoxicity, read-out: IC50 rat skeletal myoblasts), 131 µM; in the experiment on P. falciparum NF54 (setting [6]), 0.012 µM.

Take `CC(C)=CCC/C(C)=C/CC/C(C)=C/Cc1c[nH]c2ccccc2c1=O` [Compound 2, 2-Desmethyl aurachin D]: the IC50 in experiment [1] worked out at 1.5 µM; in experiment [2] (setting [7]), 9.5 µM; in the experiment on T. cruzi Tulahuen C4, 2.4 µM; in the experiment with Rat Myoblast L6 Cells (setting [8]), 20.4 µM; in the experiment on P. falciparum NF54 it was 0.006 µM.

For `CC(C)=CCC/C(C)=C/CC/C(C)=C/Cc1c(C)[nH]c2ccc(C)cc2c1=O` [Compound 3, 6-Methyl aurachin D], the IC50 in experiment [1] is 4.3 µM; in experiment [2] (setting [7]), 43.2 µM; in the experiment with T. cruzi Tulahuen C4, 7.6 µM; with Rat Myoblast L6 Cells (setting [8]) it was 18.6 µM; with P. falciparum NF54 it was 0.514 µM.

Regarding `CC(C)=CCC/C(C)=C/CC/C(C)=C/Cc1c(C)[nH]c2cc(C)ccc2c1=O` [Compound 4, 7-Methyl aurachin D], the IC50 in experiment [1] (Leishmania donovani, 72 h) is 9.1 µM; in experiment [2] (setting [4]), 164 µM; in the experiment with T. cruzi Tulahuen C4 (setting [3]), 45.7 µM; with Rat Myoblast L6 Cells (setting [5]) it was 65.3 µM; in the experiment with P. falciparum NF54 (setting [6]), 0.007 µM.

`COc1ccc2[nH]c(C)c(C/C=C(\C)CC/C=C(\C)CCC=C(C)C)c(=O)c2c1` [Compound 5, 6-Methoxy aurachin D]: the IC50 in experiment [1] was 7.3 µM; in experiment [2] (setting [7]), 40.3 µM; with T. cruzi Tulahuen C4, 19.3 µM; in the experiment on Rat Myoblast L6 Cells (setting [8]), 118 µM; in the experiment with P. falciparum NF54, 0.866 µM.

As for `COc1ccc2c(=O)c(C/C=C(\C)CC/C=C(\C)CCC=C(C)C)c(C)[nH]c2c1` [Compound 6, 7-Methoxy aurachin D], the IC50 in experiment [1] stood at 17.1 µM; in experiment [2] (setting [7]), 44.8 µM; in the experiment on T. cruzi Tulahuen C4, 21.9 µM; with Rat Myoblast L6 Cells (setting [8]) it was 80.8 µM; in the experiment with P. falciparum NF54, 0.089 µM.

With `CC(C)=CCC/C(C)=C/CC/C(C)=C/Cc1c(C)[nH]c2ccc(F)cc2c1=O` [Compound 7, 6-Fluoro aurachin D], the half-inhibitory concentration (IC50) is 0.617 µM in experiment [1]; 37.2 µM in experiment [2] (setting [7]); 1.8 µM in the experiment on T. cruzi Tulahuen C4; 126 µM in the experiment on Rat Myoblast L6 Cells (setting [8]); 0.061 µM in the experiment with P. falciparum NF54.

As to `CC(C)=CCC/C(C)=C/CC/C(C)=C/Cc1c(C)[nH]c2ccc(Cl)cc2c1=O` [Compound 8, 6-Chloro aurachin D], the IC50 in experiment [1] amounted to 6.2 µM; in experiment [2] (setting [7]), 37.4 µM; with T. cruzi Tulahuen C4 it was 11.2 µM; with Rat Myoblast L6 Cells (setting [8]) it was 118 µM; in the experiment on P. falciparum NF54, 0.021 µM.

With `CC(C)=CCC/C(C)=C/CC/C(C)=C/Cc1c(C)[nH]c2cc(Cl)ccc2c1=O` [Compound 9, 7-Chloro aurachin D], the IC50 in experiment [1] came out at 9.2 µM; in experiment [2] (setting [7]), 105 µM; with T. cruzi Tulahuen C4 it was 41.8 µM; in the experiment on Rat Myoblast L6 Cells (setting [8]) it was 54.7 µM; in the experiment on P. falciparum NF54 it was 0.07 µM.

As to `CC(C)=CCC/C(C)=C/CC/C(C)=C/Cc1c(C)[nH]c2ccc(Br)cc2c1=O` [Compound 10, 6-Bromo aurachin D], the half-inhibitory concentration (IC50) was 13.9 µM in experiment [1]; 40.2 µM in experiment [2] (setting [7]); 22.6 µM in the experiment with T. cruzi Tulahuen C4; 108 µM with Rat Myoblast L6 Cells (setting [8]); 0.119 µM in the experiment on P. falciparum NF54.

Regarding `Nc1nc(N)nc(Nc2ccc([As]3SCC(CO)S3)cc2)n1` (stereo not shown) [Melarsoprol, reference compound], the 50% inhibitory concentration (IC50) in experiment [2] (Trypanosoma brucei, 72 h) was 0.013 µM.

Consider `CCCCCCCCCCCCCCCCOP(=O)([O-])OCC[N+](C)(C)C` [Miltefosine, reference compound], for which, in experiment [1] (Leishmania donovani, 72 h), the IC50 is 0.732 µM.

For the compound `COc1cc([C@@H]2c3cc4c(cc3[C@H](O)[C@H]3COC(=O)[C@H]23)OCO4)cc(OC)c1OC` [Podophyllotoxin, reference compound], the concentration for half-maximal inhibition (IC50) in the experiment on Rat Myoblast L6 Cells (Rattus norvegicus, L6, 72 h, read-out: IC50 Rat Myoblast L6 Cells) is 0.022 µM.
